Results: PMC7231190, “The Medium-Chain Fatty Acid Receptor GPR84 Mediates Myeloid Cell Infiltration Promoting Steatohepatitis and Fibrosis” (Journal of Clinical Medicine, 2020)
Counter-ions that a name gives are not always drawn.

Tests used:
[1] = target: T1, mGPR84 (Mus musculus, UniProt Q8CIM5); experiment: cAMP HTRF assay, CHO-K1-mGPR84 cell membrane; type: biochemical
T1 construct: expressed in transfected cells; host or cells: CHO-K1

[2] = tested on: lung fibrosis mouse models; design: method as in earlier work; details: two mouse models, therapeutic setting; cited from earlier work
[3] = tested on: experimental kidney as well as liver fibrosis; design: method as in PMID 29454750, PMID 30093459; details: cited from earlier work
[4] = tested on: patients with NASH; design: method as in PMID 28833331, PMID 31943293; details: early data from a clinical trial in patients with NASH; cited from earlier work
[5] = tested on: neutrophils from mouse bone marrow; experiment: Transwell chemotaxis of murine bone-marrow neutrophils; type: cell-based; details: 3-µM embelin, 2 h
Procedure: (§1) Bone marrow of the untreated WT mice at 8 weeks of age was used to isolate the immune cells for transwell migration assays. A single cell suspension was achieved by flushing cold RPMI-1640 through the bones, and grinding the received bone marrow through a 70-µm cell strainer. After lysis of red blood cells by Pharmlyse (BD Biosciences, San Jose, CA, USA), 1 × 10^6 cells in RPMI-1640 were placed in the upper compartment of the 5-µm transwell migration chamber. Migration was analyzed towards stimulation with a 3-µM embelin, a surrogate GPR84 agonist, or a 100-µM myristic acid (an MCFA) dissolved in combination with bovine serum albumin (BSA) in the lower compartment. The chemotactic cytokines, 5 nM CCL2 or 1 nM CXCL1, were used as positive controls for monocyte or neutrophil migration, respectively. After 2 h of incubation at 37 °C, the cells in the lower compartment were analyzed by flow cytometry.

[6] = tested on: CD115+ monocytes from mouse bone marrow; experiment: Transwell chemotaxis of murine bone-marrow monocytes; type: cell-based; details: 3-µM embelin, 2 h
Procedure: as §1

[7] = tested on: human neutrophils; experiment: Human neutrophil chemotaxis towards GPR84 agonists; type: cell-based; details: embelin 5 µM
[8] = tested on: C57BL6/J wildtype mice, MCD diet; experiment: MCD diet-induced steatohepatitis and fibrosis in mice; type: in vivo, mouse; details: MCD diet 8 weeks, treatment last 4 weeks; GPR84 antagonists 30 mg/kg PO q.d., selonsertib 15 mg/kg PO b.i.d.
[9] = tested on: C57BL6/J wildtype mice, chronic CCl4; experiment: CCl4-induced chronic liver injury / fibrosis in mice; type: in vivo, mouse; details: CCl4 IP twice per week 8 weeks, treatment last 4 weeks; CpdA 30 mg/kg q.d., selonsertib 15 mg/kg b.i.d.
[10] = tested on: C57BL6/J wildtype mice, acute CCl4 liver injury; experiment: CCl4-induced acute liver injury in mice; type: in vivo, mouse; details: 36 h after single IP CCl4
[11] = GPR84 antagonists 30 mg/kg PO, selonsertib 15 mg/kg PO

T1 sequence (Q8CIM5 whole entry): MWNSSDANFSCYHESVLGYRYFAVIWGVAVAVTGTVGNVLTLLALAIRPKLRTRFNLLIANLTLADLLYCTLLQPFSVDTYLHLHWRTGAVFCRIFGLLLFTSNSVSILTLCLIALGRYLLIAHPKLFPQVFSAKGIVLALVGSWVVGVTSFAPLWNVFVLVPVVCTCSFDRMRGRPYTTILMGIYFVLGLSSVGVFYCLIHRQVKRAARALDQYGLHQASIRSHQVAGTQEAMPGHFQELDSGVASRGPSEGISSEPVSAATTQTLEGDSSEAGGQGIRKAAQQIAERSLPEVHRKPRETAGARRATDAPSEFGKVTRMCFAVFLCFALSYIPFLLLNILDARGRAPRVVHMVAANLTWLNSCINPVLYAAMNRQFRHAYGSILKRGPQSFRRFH

Question: With `CCCCCCCCCC(=O)O` [Capric acid] as the compound, how does the “EC80 of agonist in cAMP HTRF assay” value [1] read?
Answer: cAMP HTRF assay (IC50 nM) CHO-K1-mGPR84 cell membrane, Capric acid (EC80 = 61.7 µM)

Question: With `O=c1nc(OC[C@@H]2COCCO2)cc2n1CCc1cc(C#CC3CC3)ccc1-2` [GLPG1205] as the compound, how does the lung fibrosis [2] read?
Answer: reduced lung fibrosis

Question: For `CCCCCc1cccc(CC(=O)O)c1` [PBI-4050, 3-pentylbenzeneacetic acid sodium salt], which “experimental kidney and liver fibrosis” value [3] is on record?
Answer: reduced experimental kidney as well as liver fibrosis

Question: Which antifibrotic activity [4] does the source give for `CCCCOCCOc1ccc(-c2ccc3c(c2)/C=C(/C(=O)Nc2ccc([S@@+]([O-])Cc4cncn4CCC)cc2)CCCN3CC(C)C)cc1` [cenicriviroc] here?
Answer: effective antifibrotic activity

Question: What does the source list for `CCCCCCCCCCCC1=C(O)C(=O)C=C(O)C1=O` [embelin]?
Answer: attraction of mouse neutrophils by agonist [5]: attracted; stimulation of mouse monocyte migration by agonist [6]: stimulated; induction of human neutrophil migration by agonist [7]: strongly induced

Question: Which “liver fibrosis (Sirius-Red-stained liver sections and hepatic hydroxyproline content)” value [8] does the source give for `Cc1cc(F)c(C(=O)Nc2cccc(-c3nncn3C(C)C)n2)cc1-n1cnc(C2CC2)c1` [selonsertib] here?
Answer: reduced

Question: And the “liver fibrosis (Sirius-Red-staining and hepatic hydroxyproline content)” value [9]?
Answer: markedly reduced

Question: And the “neutrophils and liver lymphocytes” value [9]?
Answer: largely unaltered

Question: And the “numbers of hepatic macrophages, particularly MoMF” value [9]?
Answer: lower numbers

Question: And the “toxic injury according to histology or ALT levels” value [9]?
Answer: unaffected

Question: What about the “extent of acute liver injury (necrotic areas on histology, serum ALT)” value ([10]; GPR84 antagonists 30 mg/kg PO at 0 h, 24 h, selonsertib 15 mg/kg PO at 0, 12, 24 h) of the same compound?
Answer: neither significantly modified

Question: And the “MoMF infiltration (flow cytometry)” value [10, 11]?
Answer: but not selonsertib, significantly reduced

Question: What about the “hepatic macrophage accumulation (F4/80 immunohistochemistry)” value [10, 11] of the same compound?
Answer: neither significantly modified

Question: What about the “hepatic neutrophil infiltration (flow cytometry)” value [10, 11] of the same compound?
Answer: but not selonsertib, significantly reduced
